# Patent US11001562B2, “Near-infrared fluorescent nerve contrast agents and methods of use thereof” (Beth Israel Deaconess Medical Center, priority 2013, dated 2021)
# Columns and labels:
# [1] = system: pig sciatic nerve tissue cross sections; assay: Ex vivo nerve-specific fluorophore screening on nerve tissue sections; details: 100 μM fluorophore, 20 min incubation, pig sciatic nerve sections
# Method: Phase contrast image (top) and fluorescence image (bottom) of nerve tissue sections incubated with 100 μM of test fluorophores are shown. Nerve-specific fluorescence intensity was determined using staining of pig sciatic nerve cut in cross section. Nerve tissue sections were incubated in 30% FBS solutions without (negative control, autofluorescence only) and with each fluorophore. As a positive control, previously reported nerve-specific BMB was used. Shown are phase contrast image (top) and fluorescence image (bottom) of nerve tissue sections incubated with 100 μM of each fluorophore. The control autofluorescence images were taken with equivalent exposure time and normalization. Arrowheads indicate fluorescence signals in nerve bundles. Ad=adipose tissue. Scale bars=200 μm. The SBR of each nerve relative to the neighboring adipose tissue was quantified and labeled as—, SBR<1; +, SBR=1−2; and ++, SBR >2.
# Sciatic nerves from female Yorkshire pigs were harvested, fixed in 2% paraformaldehyde (PFA), and flash frozen in optimal cutting temperature (OCT) compound using liquid nitrogen. Nerve tissues were cut in cross section using a cryostat at […] thickness onto positively charge glass slides. Tissue sections were washed once with phosphate buffered saline (PBS) for 2 min to remove residual OCT. The tissue was then fixed to the slide with 2% PFA for 15 min, followed by washing with PBS (3×5 min). A formulation was previously developed for intravenous (IV) administration and was used in the current study to incubate the fluorophores with the nerve tissue (25). All fluorophores were mixed from the 100 mM stock solution into the IV formulation at 100 µM and incubated with the washed nerve tissue sections at room temperature for 20 min. Additional IV formulation not containing fluorophore was mixed and used to wash each nerve section twice (5 min per wash) following incubation with the formulated fluorophore. The nerve section was then washed an additional 2 times with PBS (5 min per each), after which coverslips were mounted using Fluoromount-G (Southern Biotech, Birmingham, Ala.).
# NIR fluorescence microscopy for ex vivo nerve tissue slides was performed on a Nikon Eclipse TE300 microscope system as previously described (12, 19, 25). The microscope was equipped with a 100 W mercury light source, NIR-compatible optics, and a NIR-compatible 10× Plan Fluor objective lens and a 100× Plan Apo oil immersion objective lens (Nikon, Melville, N.Y.). Images were acquired on an Orca-AG (Hamamatsu, Bridgewater, N.J.). Image acquisition and analysis was performed using IPLab software (Scanalytics, Fairfax, Va.). A custom filter set (Chroma Technology Corporation, Brattleboro, Vt.) composed of a 650±22 nm excitation filter, a 675 nm dichroic mirror, and an 710±25 nm emission filter were used to detect Oxazine derivatives and Rhodamine 800 signals in the nerve tissue slides. For BMB, a mercury light source was passed through a 360±25 nm BP excitation filter, a 400 nm LP beam splitter, and a 550±50 nm emission filter.
# [2] = system: recurrent laryngeal nerve (RLN), brachial plexus (BP) and sciatic nerve (SN) of Yorkshire pigs; assay: Nerve targeting in large animals, intraoperative FLARE imaging; format: in vivo, pig; details: iv
# Method: 20 μmol (0.17 mg/kg) of Oxazine 4 was injected intravenously into 35 kg Yorkshire pigs, and the SBR of nerves to the specified surrounding tissue was measured at different time points (T=0, 15, 30, 60, 120, 180, and 240 min). B) Real-time intraoperative fluorescence images of RLN (top), BP (middle), and SN (bottom) acquired at different time points (T=0, 15, 30, 60, 120, 180, and 240 min). Ad=adipose tissue; Mu=muscle; TEG=tracheoesophageal groove; Th=thyroid; Tr=trachea. Scale bars=1 cm. Fluorescence images have identical exposure times (500 msec) and normalizations. C) Fluorescence microscopic images of cryosectioned RLN, BP, and SN. Samples were obtained after injecting 20 μmol of Oxazine 4 into Yorkshire pigs 4 h prior to resection. Shown are representative images (N=5) of H&E (left) and NIR fluorescence (right) images. Scale bars=[…]. All NIR fluorescence images have identical exposure times and normalizations.
# Animals were housed in an AAALAC-certified facility. Animal studies were performed under the supervision of Beth Israel Deaconess Medical Center's Institutional Animal Care and Use Committee (IACUC) in accordance with approved institutional protocols (#101-2011 for rodents and #046-2010 for pigs). […] Following anesthesia, electrocardiogram, heart rate, pulse oximetry, and body temperature were monitored throughout surgery.
# Initial in vivo screening occurred in rats based on our previous study of BMB (Supplementary Methods) (25). […] The fluorescence signal in nervous tissues and signal-to-background ratio (SBR) compared to neighboring muscle (Mu) were obtained over the period of imaging. […]
# The fluorescence intensity (FI) and background (BG) intensity of a region of interest (ROI) over each nerve/tissue were calculated and quantified using custom FLARE^a software. The FI of the RLN, BP, and SN at the optimal dose and time point were quantified to measure tissue-specific targeting. […]
structure (smiles),measurement,setting,value
CC/N=c1/cc2oc3cc(NCC)c(C)cc3nc-2cc1C [Oxazine 4],nerve-specific fluorescence signal in cross-sectioned nerve,[1],strong fluorescence signal throughout the cross-sectioned nerve
same,signal retention in BP and SN post injection,[2],up to 3 h
same,"time of maximal SBR, BP and SN",[2],1 h
same,"time of maximal SBR, RLN",[2]; RLN vs surrounding tissue,3 h
